The values below come from a melting point compilation (Tetko et al.).

On to `COc1ccccc1CC(=O)NN`, for which the melting point (commonly the temperature of the solid-liquid transition) lay in the range of 112 to 114 °C.

The molecule `COC(=O)c1sc2cccc(F)c2c1CBr` returned a melting point of 157 to 159 °C.

In the case of `Cc1cccc2[nH]cc(C=O)c12`, the melting point is 188 to 190 °C.

Consider `Cn1ccnc1C(=O)c1ccc(Cl)c([N+](=O)[O-])c1`, for which the melting point fell in the range of 145 to 147 °C.

Turning to `O=C1CNc2ccccc2N1`, the melting point fell in the range of 119 to 121 °C.

The molecule `Nc1cccc(C(=O)Nc2cccc(C(F)(F)F)c2)c1` registered a melting point of 114 to 115 °C.

Molecule `O=C(O)c1cc(F)cc2[nH]c(S)nc12` came in with a melting point of 374 to 376 °C.

With `Cc1ccnc(Br)c1[N+](=O)[O-]`, the melting point is 54 to 56 °C.

In the case of `Cc1nc(SCC(=O)O)c(C#N)c(C)c1C`, the melting point lay within 135 to 138 °C.

The molecule `COC(=O)c1cc(S(=O)(=O)Cl)c(F)cc1F` gave a melting point of 104 to 106 °C.

Consider `CSc1cnn(-c2ccccc2)c1N`, for which the melting point fell in the range of 77 to 79 °C.

Consider `COc1ccc(C(=O)O)nc1I`, for which the melting point was in the range of 189 to 191 °C.

`O=c1[nH]ccc2occc12` gave a melting point of 193 to 195 °C.

`O=C(O)c1c[nH]c2cccc(Br)c12` registered a melting point of 159 to 161 °C.

On to `Nc1nc2ccccc2n1-c1ccccc1F`, for which the melting point lay in the range of 121 to 123 °C.

`Cc1ccc(S(=O)(=O)NC(CCl)c2ccccc2)cc1` (stereo not drawn): the melting point lay within 174 to 176 °C.

`CCOC(=O)c1c(N)sc2c1CCN(C(C)C)C2` yielded a melting point of 81 to 83 °C.

With `Nn1cnc2sccc2c1=O`, the melting point fell in the range of 214 to 216 °C.

Turning to `CCn1nc(N)cc1C(F)(F)F`, the melting point is 54 to 56 °C.

`O=C1NC(=O)N(C2CC2)C1=O`: the melting point lay in the range of 115 to 117 °C.

`Cc1nn(-c2ccccc2)c(C)c1C(=O)C(=O)O` registered a melting point of 206 to 208 °C.

Turning to `Cc1ccc(NS(=O)(=O)c2ccc(NN)c([N+](=O)[O-])c2)c(C)c1`, the melting point lay within 215 to 217 °C.

In the case of `Nc1cc(Cl)ccc1-n1cnnn1`, the melting point was in the range of 130 to 132 °C.

On to `NCc1nc(-c2cccs2)no1`, for which the melting point was 141 to 143 °C.

The molecule `O=C(O)c1ccc(N2CCNC2=O)cc1` returned a melting point of 313 to 315 °C.

For the molecule `COCC(C)NC(=O)CC#N` (stereo not drawn), the melting point lay in the range of 40 to 44 °C.

As for `Cc1cc(CN2CCSCC2)ccc1N`, the melting point was in the range of 106 to 108 °C.

Molecule `Cc1ccc(C(=O)CC#N)cc1F` yielded a melting point of 82 to 84 °C.

Consider `O=C(CCl)NCC1(c2ccccc2)CCC1`, for which the melting point lay in the range of 95 to 97 °C.

As to `CS(=O)(=O)Nc1ccccc1N`, the melting point was in the range of 102 to 104 °C.

In the case of `COc1ccc(COCC(=O)O)cc1`, the melting point was in the range of 41 to 43 °C.

`O=C(CCl)Nc1ccc(C(=O)O)cc1` had a melting point of 230 to 232 °C.

The molecule `O=C(O)c1c[nH]c2ncccc12` had a melting point of 213 to 215 °C.

The molecule `O=C(CCl)Nc1nnc(C2CC2)o1` showed a melting point of 148 to 150 °C.

As for `Nc1cccc(Cl)c1Sc1ccccn1`, the melting point was in the range of 87 to 89 °C.

`N#Cc1nc2ccccc2cc1Br` came in with a melting point of 139 to 141 °C.

Molecule `Cc1ccc(S(=O)(=O)N(C)CC(=O)O)cc1` showed a melting point of 228 to 230 °C.

For `COC(=O)COc1ccc(Br)cc1`, the melting point lay within 49 to 51 °C.

Turning to `Cc1cc(C(=O)CBr)ccc1O`, the melting point fell in the range of 119 to 121 °C.

The molecule `O=C(O)c1cnc(-c2ccoc2)s1` returned a melting point of 226 to 228 °C.

As for `CC(=O)Oc1ccc(C(=O)O)cc1OC(C)=O`, the melting point lay within 159 to 161 °C.

Molecule `Cc1ncc(Br)n1C` returned a melting point of 92 to 94 °C.

`NS(=O)(=O)C(F)F` showed a melting point of 59 to 61 °C.

As to `O=C(COc1ccccc1C(=O)O)Nc1ccc(Br)cc1`, the melting point was 241 to 243 °C.

`COC(=O)c1cccc(OCC(N)=NO)c1`: the melting point was in the range of 134 to 136 °C.

`Cc1ccc(S(C)(=O)=O)cc1C(=O)O` yielded a melting point of 204 to 206 °C.

On to `Cc1cc(F)c(N)c(I)c1`, for which the melting point was in the range of 32 to 34 °C.

Molecule `CCNC(=O)c1cc(Cl)ccn1` had a melting point of 60 to 62 °C.

Molecule `CCOc1ccc(Cl)nn1` registered a melting point of 60 to 62 °C.

As for `CC1CNc2cc(Cl)ccc2O1` (stereo not drawn), the melting point is 75 to 77 °C.

As to `N#CCC(=O)c1ccc(F)c(Cl)c1`, the melting point was in the range of 59 to 61 °C.

`CCc1ccc(C(=O)O)o1` gave a melting point of 89 to 91 °C.

Consider `Nc1ccc(Sc2ccccc2)c(Cl)c1`, for which the melting point fell in the range of 55 to 57 °C.

On to `O=C(O)CCCSc1nc2ccccc2s1`, for which the melting point fell in the range of 103 to 105 °C.

The molecule `Nc1cnncc1Cl` gave a melting point of 79 to 81 °C.

Turning to `Cc1ccncc1C(=O)O`, the melting point is 199 to 201 °C.

With `CNC(=O)CCC(F)(F)F`, the melting point lay within 111 to 113 °C.

For `CCc1cc(=O)[nH]c(-c2ccccc2)n1`, the melting point was in the range of 162 to 164 °C.

As for `CC(=O)NC(=O)CCl`, the melting point lay in the range of 113 to 115 °C.

For the molecule `c1nc(N2CCOCC2)c2nc[nH]c2n1`, the melting point lay within 301 to 303 °C.

Molecule `O=[N+]([O-])c1cc(Cl)cnc1Br` showed a melting point of 75 to 77 °C.

Molecule `NCCNS(=O)(=O)c1cc(Br)ccc1Br` yielded a melting point of 170 to 172 °C.

With `NC(=O)c1c(N)sc2c1CCN(Cc1ccccc1)C2`, the melting point is 76 to 78 °C.

In turn, `CCNc1nc(C(=O)O)cs1` returned a melting point of 215 to 217 °C.

The molecule `N#CCC(=O)c1ccccc1F` came in with a melting point of 51 to 53 °C.

Molecule `Cc1cc([N+](=O)[O-])c(C)cc1C#N` showed a melting point of 119 to 121 °C.

`O=C(O)c1ccccc1NS(=O)(=O)c1ccc(Br)cc1` yielded a melting point of 225 to 227 °C.

`CCCCOc1ccc(C(N)=O)cc1` yielded a melting point of 162 to 164 °C.

On to `CCNc1ccc(S(=O)(=O)C(F)(F)F)cc1`, for which the melting point was 63 to 65 °C.

On to `Nc1cc(-c2cccc(F)c2F)n[nH]1`, for which the melting point was in the range of 117 to 119 °C.

As to `CCC1CCc2[nH]c(=O)sc2C1` (stereo not drawn), the melting point fell in the range of 144 to 146 °C.

The molecule `CN(C)C(=O)c1cccc([N+](=O)[O-])c1` returned a melting point of 79 to 81 °C.

Consider `Cc1cc(C)n(Cc2ccc(C(=O)O)cc2)n1`, for which the melting point fell in the range of 179 to 181 °C.

As to `N#Cc1ccc(O)c(N)c1`, the melting point was in the range of 149 to 151 °C.

In the case of `O=C(O)c1ccc2c(c1)ncn2Cc1ccccc1`, the melting point lay within 102 to 104 °C.

For `Nc1nc(-c2c(F)cccc2F)cs1`, the melting point was 179 to 181 °C.

As to `CC(Cl)C(=O)NC1(C#N)CCCCC1` (stereo not drawn), the melting point lay in the range of 100 to 102 °C.

In turn, `CC(Cl)c1nc2cc(Cl)ccc2n1Cc1ccccc1` (stereo not drawn) yielded a melting point of 110 to 112 °C.

In the case of `COC(=O)c1cc(-c2ccccc2)nc2ccccc12`, the melting point is 60 to 62 °C.

The molecule `Clc1ccc(Cc2nn[nH]n2)cc1Cl` came in with a melting point of 153 to 155 °C.

For the molecule `CCn1cnnc1CNC(=O)OCC(F)(F)F`, the melting point was 102 to 104 °C.

In turn, `Cc1c(C(=O)O)nnn1-c1cccc2ncccc12` yielded a melting point of 209 to 211 °C.

`O=C(CCl)NCC1Cc2ccccc2O1` (stereo not drawn) gave a melting point of 94 to 96 °C.

Molecule `CNc1ccc(C(=O)O)cn1` displayed a melting point of 249 to 251 °C.

`COc1ccc(Br)nc1C(F)(F)F` registered a melting point of 32 to 34 °C.

In turn, `O=C(Cc1ccccn1)c1ccc(Br)cc1` came in with a melting point of 126 to 128 °C.

In turn, `CCN(c1ccccc1)S(=O)(=O)c1ccc(Cl)c([N+](=O)[O-])c1` showed a melting point of 122 to 124 °C.

The molecule `O=C(Nc1ccc(O)cc1)c1cccc([N+](=O)[O-])c1` gave a melting point of 222 to 224 °C.
